In ChEMBL document CHEMBL1129230, “Inhibitory effects of scopadulcic acid B and its derivatives on bone resorption and osteoclast formation in vitro” (1996):

Tests used:
Assay type in all cases: functional
Mus musculus [1] = organism: Mus musculus; assay: Inhibition of PTH-stimulated osteoclast-like cell formation at concentration 5 uM
Mus musculus [2] = organism: Mus musculus; assay: Inhibition of PTH-stimulated bone resorption at concentration of 5 uM
Mus musculus [3] = organism: Mus musculus; assay: Inhibition of PTH-stimulated bone resorption at concentration of 2 uM
Mus musculus [4] = organism: Mus musculus; assay: Inhibition of PTH-stimulated osteoclast-like cell formation at concentration 2 uM
Mus musculus [5] = organism: Mus musculus; assay: Inhibition of PTH-stimulated osteoclast-like cell formation at concentration 10 uM
Mus musculus [6] = organism: Mus musculus; assay: compound was evaluated in vitro for the inhibition of PTH-stimulated osteoclast-like cell formation at concentration 2 uM
Mus musculus [7] = organism: Mus musculus; assay: compound was evaluated in vitro for the inhibition of PTH-stimulated osteoclast-like cell formation at concentration 10 uM
Mus musculus [8] = organism: Mus musculus; assay: compound was evaluated in vitro for the inhibition of PTH-stimulated osteoclast-like cell formation at concentration 5 uM
Mus musculus [9] = organism: Mus musculus; assay: compound was evaluated in vitro for the inhibition of PTH-stimulated osteoclast-like cell formation at concentration 0.5 uM
Mus musculus [10] = organism: Mus musculus; assay: Inhibition of PTH-stimulated bone resorption at concentration of 10 uM
Mus musculus [11] = organism: Mus musculus; assay: compound was evaluated in vitro for the inhibition of PTH-stimulated osteoclast-like cell formation at concentration 0.1 uM
Mus musculus [12] = organism: Mus musculus; assay: compound was evaluated in vitro for the inhibition of PTH-stimulated osteoclast-like cell formation at concentration 0.05 uM

Compound | inhibition at 5 µM (Mus musculus [1]) | Inhibition (Mus musculus [2]) | Inhibition (Mus musculus [3]) | inhibition at 2 µM (Mus musculus [4]) | inhibition at 10 µM (Mus musculus [5]) | inhibition at 2 µM (Mus musculus [6]) | inhibition at 10 µM (Mus musculus [7]) | inhibition at 5 µM (Mus musculus [8]) | inhibition at 0.5 µM (Mus musculus [9]) | Inhibition (Mus musculus [10]) | inhibition at 0.1 µM (Mus musculus [11]) | inhibition at 0.05 µM (Mus musculus [12])
C[C@@]1(CO)CCC[C@@]2(C)C1[C@H](OC(=O)c1ccccc1)C[C@H]1C[C@@H](O)[C@@]3(C)CC[C@]12C3 (stereo partly drawn) | 87% | 95% | -60% | 17% | 105% | – | – | – | – | – | – | –
C[C@@]1(CO)CCC[C@@]2(C)C1[C@H](OC(=O)c1ccccc1)C[C@H]1C[C@H](O)[C@@]3(C)CC[C@]12C3 (stereo partly drawn) | – | 99% | -51% | – | – | 24% | 94% | 75% | – | – | – | –
C[C@]12CC[C@]3(C1)C(CC2=O)C[C@@H](OC(=O)c1ccccc1)C1[C@](C)(CO)CCC[C@@]13C (stereo partly drawn) | 137% | 99% | 106% | 137% | 137% | – | – | – | 137% | 99% | 115% | 44%
C[C@]12CC[C@]3(C1)[C@@H](C[C@@H](O)[C@H]1[C@](C)(CO)CCC[C@@]13C)C[C@H]2O | – | 6% | -8% | – | – | – | – | – | – | -17% | – | –
CC(=O)OC[C@]1(C)CCC[C@@]2(C)[C@H]1[C@H](OC(=O)c1ccccc1)C[C@H]1CC(=O)[C@@]3(C)CC[C@]12C3 | 90% | 107% | 12% | 45% | 105% | – | – | – | – | 125% | – | –
CC(=O)O[C@@H]1C[C@H]2CC(=O)[C@@]3(C)CC[C@@]2(C3)[C@@]2(C)CCC[C@@](C)(C(=O)O)[C@H]12 | 27% | 40% | 33% | -8% | 37% | – | – | – | – | 47% | – | –
C[C@]12CC[C@]3(C1)[C@@H](C[C@@H](OC(=O)c1ccccc1)[C@H]1[C@](C)(C(=O)O)CCC[C@@]13C)C[C@@H]2O | 75% | 39% | 35% | 24% | 93% | – | – | – | – | 70% | – | –
COC(=O)[C@]1(C)CCC[C@@]2(C)[C@H]1[C@H](OC(=O)c1ccccc1)C[C@H]1C[C@H](OC(C)=O)[C@@]3(C)CC[C@]12C3 | 109% | 51% | 38% | 81% | 134% | – | – | – | – | 55% | – | –
COC(=O)[C@]1(C)CCC[C@@]2(C)[C@H]1[C@H](OC(=O)c1ccccc1)C[C@H]1C[C@@H](O)[C@@]3(C)CC[C@]12C3 | – | 29% | 22% | – | – | – | – | – | – | 49% | – | –
COC(=O)[C@]1(C)CCC[C@@]2(C)[C@H]1[C@H](OC(=O)c1ccccc1)C[C@H]1C[C@H](O)[C@@]3(C)CC[C@]12C3 | – | -17% | -23% | – | – | – | – | – | – | -10% | – | –
C[C@]12CC[C@]3(C1)[C@H](C/C2=N\O)C[C@@H](OC(=O)c1ccccc1)[C@H]1[C@](C)(C(=O)O)CCC[C@@]13C | – | 66% | 28% | – | – | – | – | – | – | 90% | – | –
CC(=O)O[C@@H]1C[C@@H]2C[C@@H](OC(=O)c3ccccc3)[C@H]3[C@](C)(C(=O)O)CCC[C@]3(C)[C@]23CC[C@@]1(C)C3 | 72% | 26% | 27% | 55% | 79% | – | – | – | – | 42% | – | –
COC(=O)[C@]1(C)CCC[C@@]2(C)[C@H]1[C@H](OC(=O)c1ccccc1)C[C@H]1C[C@@H](OC(C)=O)[C@@]3(C)CC[C@]12C3 | 70% | 40% | 55% | 60% | 112% | – | – | – | – | 37% | – | –
C[C@]12CC[C@]3(C1)[C@H](C[C@H]2O)C[C@@H](OC(=O)c1ccccc1)[C@H]1[C@](C)(C(=O)O)CCC[C@@]13C | 87% | 40% | 45% | 17% | 104% | – | – | – | – | 37% | – | –
COC(=O)[C@]1(C)CCC[C@@]2(C)[C@H]1[C@H](OC(=O)c1ccccc1)C[C@H]1CC(=O)[C@@]3(C)CC[C@]12C3 | 91% | 74% | 78% | 70% | 118% | – | – | – | – | 110% | – | –
C[C@]12CC[C@]3(C1)[C@@H](C[C@@H](O)[C@H]1[C@](C)(CO)CCC[C@@]13C)C[C@@H]2O | – | -25% | -5% | – | – | – | – | – | – | -4% | – | –
CC(=O)O[C@H]1C[C@@H]2C[C@@H](OC(=O)c3ccccc3)[C@H]3[C@](C)(C(=O)O)CCC[C@]3(C)[C@]23CC[C@@]1(C)C3 | – | 18% | 21% | – | – | – | – | – | – | 8% | – | –
C[C@]12CC[C@]3(C1)C(CC2=O)C[C@@H](O)C1[C@](C)(C(=O)O)CCC[C@@]13C (stereo partly drawn) | 10% | 92% | 43% | 0% | 20% | – | – | – | – | 94% | – | –
CC(=O)OC[C@]1(C)CCC[C@@]2(C)C1[C@H](O)CC1C[C@H](OC(C)=O)[C@@]3(C)CC[C@]12C3 (stereo partly drawn) | – | 23% | 1% | – | – | – | – | – | – | 11% | – | –
C[C@]12CC[C@]3(C1)[C@H](CC2=O)C[C@@H](OC(=O)c1ccccc1)[C@H]1[C@@](CO)(C(=O)O)CCC[C@@]13C [SCOPADULCIC ACID A] | – | 24% | 46% | – | – | – | – | – | – | -14% | – | –
C[C@]12CC[C@]3(C1)[C@H](CC2=O)C[C@@H](OC(=O)c1ccccc1)[C@H]1[C@](C)(C(=O)O)CCC[C@@]13C [SCOPADULCIC ACID B] | 74% | 76% | 28% | 59% | 87% | – | – | – | – | 94% | – | –
